Laboratory results published in patent publication US20230159509A1 (Amathus Therapeutics, Inc., priority 2020, published 2023).

Columns and labels:
TRAP1 enzyme [1] = target: T1, TRAP1 enzyme (Homo sapiens, UniProt Q12931); test: Malachite green phosphate assay of TRAP1 ATPase activity; assay type: biochemical; conditions: for EC50: concentration for half maximal activation, read-out: Malachite Green Fluor DRC: GeoMean EC50; for Emax: maximal percent activation, read-out: Malachite Green Fluor DRC: Mean Emax
T1 construct: 150 nM Trap1 enzyme was incubated with various concentrations of the test compound
T1 sequence (Q12931 60-704): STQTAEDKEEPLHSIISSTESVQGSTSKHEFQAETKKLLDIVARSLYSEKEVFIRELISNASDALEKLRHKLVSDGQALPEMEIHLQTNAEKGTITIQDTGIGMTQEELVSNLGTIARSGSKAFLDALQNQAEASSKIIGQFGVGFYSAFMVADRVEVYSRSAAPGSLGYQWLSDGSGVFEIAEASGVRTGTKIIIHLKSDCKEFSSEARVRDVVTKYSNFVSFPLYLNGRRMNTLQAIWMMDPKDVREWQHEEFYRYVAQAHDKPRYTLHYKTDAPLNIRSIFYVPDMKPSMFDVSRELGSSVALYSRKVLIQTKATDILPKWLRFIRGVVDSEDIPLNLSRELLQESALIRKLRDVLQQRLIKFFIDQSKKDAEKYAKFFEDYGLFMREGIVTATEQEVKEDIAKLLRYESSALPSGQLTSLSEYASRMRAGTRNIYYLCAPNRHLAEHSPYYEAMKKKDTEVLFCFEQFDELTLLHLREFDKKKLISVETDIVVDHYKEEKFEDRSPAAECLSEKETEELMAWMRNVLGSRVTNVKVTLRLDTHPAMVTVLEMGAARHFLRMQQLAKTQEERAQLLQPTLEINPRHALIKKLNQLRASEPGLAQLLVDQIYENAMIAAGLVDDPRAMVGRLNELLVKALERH
Protocol: The Potency of test compounds to modulate the ATPase activity of TRAP1 enzyme was evaluated using malachite green phosphatase assay. The assay is based on quantification of the green complex formed between Malachite Green, molybdate and inorganic phosphate generated in the phosphatase reaction. Assays were performed using a Malachite Green assay kit. All the assays were carried out in a 96-well transparent plate. The buffer used was 50 mM HEPES (pH 7.5), 20 mM KCl, 4 mM MgCl2 and 0.05% BSA. 150 nM Trap1 enzyme was incubated with various concentrations of the test compound (0.78 μM-100 μM) at 37° C. for 30 mins. 20 μM ATP was added to each well (except blank wells) to start the reaction and the plate was then incubated at 37° C. for 180 mins. 10 μl of the reaction volume of each sample was then transferred to a white 384-well proxiplate in quadruplets. 2.5 μl of Malachite Green reagent was added to all the wells and the plate was equilibrated for 15 mins. The reaction was stopped by adding 12% H2SO4 and the plate was read for fluorescence at 620 nm (λex=573 nm). The amount of phosphate released was estimated from a phosphate standard curve generated at the same experimental conditions. Emax (Maximal percent activation) and EC50 (concentration of test compound for half maximal activation) were estimated by fitting the dose response data to a sigmoidal curve fitting equation using Graphpad Prism software V.7.0.

TRAP1 enzyme [2] = target: T1, TRAP1 enzyme; test: ADP Glo assay of TRAP1 ATPase activity; assay type: biochemical; conditions: for EC50: concentration for half maximal activation, read-out: ADP GLO DRC: GeoMean EC50; for Emax: maximal percent activation, read-out: ADP GLO DRC: Mean Emax; for activation at 50 µM: 1 h, compound concentration 50 μM, read-out: ADP-Glo Percent Activation at 50 μM
Procedure, shortened: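 ADP-Glo luminescence quantifying ADP from 150 nM TRAP1 preincubated 30 min at 37° C with compound (0.79–100 μM), then 20 μM ATP for 60 min at 37° C. Buffer: 25 mM Pipes pH 7.5, 40 mM KCl, 0.05 mM MgCl2, EGTA, BSA, detergents. ADP from ATP/ADP standard curve; Emax and EC50 from sigmoidal fit.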

EC50 (TRAP1 enzyme [2]) [µM]	Emax (TRAP1 enzyme [2]) [%]	activation at 50 µM (TRAP1 enzyme [2]) [%]	SMILES	other results
10 to 20	119 to 159	–	COc1ncc(NC(=O)c2csc(-c3ccncc3)n2)cc1S(=O)(=O)Nc1c(C)cccc1C [compound 1351, N-(5-(N-(2,6-dimethylphenyl)sulfamoyl)-6-methoxypyridin-3-yl)-2-(pyridin-4-yl)thiazole-4-carboxamide]	–
10 to 20	160 to 199	–	COc1ncc(NC(=O)c2cccc(-c3noc(C)n3)c2)cc1S(=O)(=O)Nc1c(C)cccc1C [compound 1401, N-(5-(N-(2,6-dimethylphenyl)sulfamoyl)-6-methoxypyridin-3-yl)-3-(5-methyl-1,2,4-oxadiazol-3-yl)benzamide]	–
–	–	151 to 180	COc1ncc(NC(=O)c2cn3c(n2)CCCC3)cc1S(=O)(=O)Nc1c(C)cccc1C [compound 2771]	–
–	–	120 to 150	COc1ncc(NC(=O)c2ccnn2C)cc1S(=O)(=O)Nc1c(C)cccc1C [compound 2559]	–
–	–	181 to 352	COc1ncc(NC(=O)c2sccc2C(F)(F)F)cc1S(=O)(=O)Nc1c(C)cccc1C [compound 2694]	–
–	–	151 to 180	COc1ncc(NC(=O)c2ccccc2C(F)(F)F)cc1S(=O)(=O)Nc1c(C)cccc1C [compound 2550]	–
–	–	151 to 180	COc1ncc(NC(=O)c2cccc(CN(C)C)c2)cc1S(=O)(=O)Nc1c(C)cccc1C [compound 2631]	–
–	–	181 to 352	CCn1nc(C)cc1C(=O)Nc1cnc(OC)c(S(=O)(=O)Nc2c(C)cccc2C)c1 [compound 2609]	–
–	–	151 to 180	COc1ncc(NC(=O)c2ccc(NC(=O)C(C)(C)C)cc2)cc1S(=O)(=O)Nc1c(C)cccc1C [compound 2699]	–
–	–	181 to 352	COc1ncc(NC(=O)c2cnn3c2SCC3)cc1S(=O)(=O)Nc1c(C)cccc1C [compound 2740]	–
–	–	151 to 180	COc1ncc(NC(=O)c2cnn(C(C)C)c2)cc1S(=O)(=O)Nc1c(C)cccc1C [compound 2639]	–
20 to 100	200 to 300	–	COc1ncc(NC(=O)c2coc(-c3ccccc3)n2)cc1S(=O)(=O)Nc1nc(C(C)(C)C)ns1 [compound 2403]	–
20 to 100	200 to 300	–	COc1ncc(NC(=O)c2csc(-c3ccccc3)n2)cc1S(=O)(=O)Nc1ncc(C(F)(F)F)cn1 [compound 2069]	–
–	–	181 to 352	COc1ncc(NC(=O)c2cnn(C)c2C(F)F)cc1S(=O)(=O)Nc1c(C)cccc1C [compound 2713]	–
< 10	160 to 199	–	COc1ncc(NC(=O)c2ncc(-c3ccccc3)o2)cc1S(=O)(=O)Nc1ccc(F)cc1C(C)C [compound 1514]	–
–	–	181 to 352	COc1ncc(NC(=O)c2ccc(N3CCCCC3)nc2)cc1S(=O)(=O)Nc1c(C)cccc1C [compound 2544]	–
–	–	181 to 352	COc1ncc(NC(=O)c2ccc(NC(C)=O)cc2)cc1S(=O)(=O)Nc1c(C)cccc1C [compound 2746]	–

The next lines start with the compound.

SMILES	EC50 (TRAP1 enzyme [2]) [µM]	Emax (TRAP1 enzyme [2]) [%]	activation at 50 µM (TRAP1 enzyme [2]) [%]	other results
COc1ncc(NC(=O)c2ncc(-c3ccccc3)o2)cc1S(=O)(=O)Nc1ccc(Cl)cc1 [compound 535, N-(5-(N-(4-chlorophenyl)sulfamoyl)-6-methoxypyridin-3-yl)-5-phenyloxazole-2-carboxamide]	–	–	–	EC50 (TRAP1 enzyme [1]): 10 to 20 µM; Emax (TRAP1 enzyme [1]): 160 to 199%
COc1ncc(NC(=O)c2cnc(-c3ccccc3)o2)cc1S(=O)(=O)Nc1ccc(C(F)(F)F)cc1 [compound 604, N-(6-methoxy-5-(N-(4-(trifluoromethyl)phenyl)sulfamoyl)pyridin-3-yl)-2-phenyloxazole-5-carboxamide]	–	–	–	EC50 (TRAP1 enzyme [1]): 20 to 100 µM; Emax (TRAP1 enzyme [1]): 160 to 199%
O=C(Nc1cccc(S(=O)(=O)Nc2ccc(Cl)cc2)n1)c1cnc(-c2ccccc2)[nH]1 [compound 612, N-(6-(N-(4-chlorophenyl)sulfamoyl)pyridin-2-yl)-2-phenyl-1H-imidazole-5-carboxamide]	–	–	–	EC50 (TRAP1 enzyme [1]): 20 to 100 µM; Emax (TRAP1 enzyme [1]): 200 to 300%
COc1ncc(NC(=O)c2ncc(-c3ccccc3)o2)cc1S(=O)(=O)Nc1ccc(C(F)(F)F)cc1 [compound 594, N-(6-methoxy-5-(N-(4-(trifluoromethyl)phenyl)sulfamoyl)pyridin-3-yl)-5-phenyloxazole-2-carboxamide]	–	–	–	EC50 (TRAP1 enzyme [1]): 20 to 100 µM; Emax (TRAP1 enzyme [1]): 119 to 159%
Cc1cccc(C)c1NS(=O)(=O)c1cncc(NC(=O)c2cnc(-c3ccccc3)[nH]2)c1 [compound 592, N-(5-(N-(2,6-dimethylphenyl)sulfamoyl)pyridin-3-yl)-2-phenyl-1H-imidazole-5-carboxamide]	–	–	–	EC50 (TRAP1 enzyme [1]): 20 to 100 µM; Emax (TRAP1 enzyme [1]): 160 to 199%
COc1ncc(NC(=O)c2csc(-c3ccccc3)n2)cc1S(=O)(=O)Nc1ccc(Cl)cn1 [compound 1385, N-(5-(N-(5-chloropyridin-2-yl)sulfamoyl)-6-methoxypyridin-3-yl)-2-phenylthiazole-4-carboxamide]	10 to 20	160 to 199	–	–
COc1ncc(NC(=O)c2ccc(N3CCOCC3)nc2)cc1S(=O)(=O)Nc1c(C)cccc1C [compound 2554]	–	–	181 to 352	–
COc1ncc(NC(=O)c2ccn(C3CC3)n2)cc1S(=O)(=O)Nc1c(C)cccc1C [compound 2562]	–	–	181 to 352	–
COc1ncc(NC(=O)c2ccc3nc(C)sc3c2)cc1S(=O)(=O)Nc1c(C)cccc1C [compound 1400, N-(5-(N-(2,6-dimethylphenyl)sulfamoyl)-6-methoxypyridin-3-yl)-2-methylbenzo[d]thiazole-6-carboxamide]	10 to 20	200 to 300	–	–
COc1ncc(NC(=O)c2coc(-c3ccc(F)cc3)n2)cc1S(=O)(=O)Nc1c(C)cc(F)cc1C [compound 1937, N-(5-(N-(4-fluoro-2,6-dimethylphenyl)sulfamoyl)-6-methoxypyridin-3-yl)-2-(4-fluorophenyl) oxazole-4-carboxamide]	< 10	119 to 159	–	–
COc1ncc(NC(=O)c2csc(-c3ccccc3)n2)cc1S(=O)(=O)Nc1ccc(C(F)(F)F)cn1 [compound 2005]	20 to 100	119 to 159	–	–
COc1ncc(NC(=O)c2coc(-c3ccccc3)n2)cc1S(=O)(=O)Nc1cc(F)c(F)cc1C [compound 2002]	10 to 20	160 to 199	–	–
COc1ncc(NC(=O)c2cc(C(C)C)on2)cc1S(=O)(=O)Nc1c(C)cccc1C [compound 2689]	–	–	181 to 352	–
COc1ncc(NC(=O)c2noc3c2CCCC3)cc1S(=O)(=O)Nc1c(C)cccc1C [compound 2725]	–	–	181 to 352	–
COc1ncc(NC(=O)c2ncc[nH]2)cc1S(=O)(=O)Nc1c(C)cccc1C [compound 2753]	–	–	120 to 150	–
COc1ncc(NC(=O)c2cscn2)cc1S(=O)(=O)Nc1c(C)cccc1C [compound 2650]	–	–	120 to 150	–
COc1ncc(NC(=O)c2cccc(-c3ccnn3C)c2)cc1S(=O)(=O)Nc1c(C)cccc1C [compound 1942, N-(5-(N-(2,6-dimethylphenyl)sulfamoyl)-6-methoxypyridin-3-yl)-3-(1-methyl-1H-pyrazol-5-yl)benzamide]	10 to 20	> 300	–	–
COc1ncc(NC(=O)c2ccc(-n3nc(C)nc3C)cc2)cc1S(=O)(=O)Nc1c(C)cccc1C [compound 2656]	–	–	181 to 352	–
COc1ncc(NC(=O)c2ncc(-c3ccccc3)o2)cc1S(=O)(=O)Nc1cc(F)c(C#N)cc1F [compound 1538]	20 to 100	119 to 159	–	–
O=C(Nc1cc(S(=O)(=O)Nc2ccc(Cl)cc2)cc[n+]1[O-])c1cnc(-c2ccccc2)[nH]1 [compound 1321, 4-(N-(4-chlorophenyl)sulfamoyl)-2-(2-phenyl-1H-imidazole-5-carboxamido) pyridine 1-oxide]	10 to 20	160 to 199	–	–
CCOc1cc(NS(=O)(=O)c2cc(NC(=O)c3csc(-c4ccccc4)n3)cnc2OC)ccn1 [compound 1773]	20 to 100	119 to 159	–	–
